Measurements published in patent US20140093486A1, “METHOD FOR PREPARING INDUCED PLURIPOTENT STEM CELLS AND ITS APPLICATIONS” (Taipei Veterans General Hospital, priority 2012, published 2014).

Columns and labels:
[1] = tested on: MEFs transfected with OSKM; experiment: efficiency of iPSC generation from OSKM-transfected MEFs (ALP staining); format: cell-based, mouse; conditions: induced by OSKM, day 21 post-reprogramming
Text: C57/B6 mice were used in this study and all procedures involving animals were approved by the Animals Committee of the Taipei Veterans General Hospital. Murine iPSCs were generated from mouse embryonic fibroblasts (MEFs) derived from 13.5-day-old embryos of C57/B6 mice. The iPSCs were reprogrammed by the transduction of retroviral vectors encoding four transcription factors (Oct4/Sox2/Klf4/c-Myc; OSKM), or three transcription factors (Oct4/Sox2/Klf4; OSK), as described previously (Li et al., 2011). Total of 12 clones (Re-1 to Re-12; OSKM) were selected and established. The clone of Re-7 iPSCs had been stably passed to more than 100 th passages with high pluripotency. Therefore, Re-7 iPSCs were selected and widely used in this study. Briefly, undifferentiated iPSCs were routinely cultured and expanded on mitotically-inactivated MEFs (50,000 cells/cm 2) in six-well culture plates (BD Technology) in the presence of 0.3% leukemia inhibitory factor in an iPSC medium consisting of Dulbecco's Modified Eagle's Medium (DMEM; Sigma) supplemented with 15% fetal bovine serum (FBS; Invitrogen), […] minimal essential medium (MEM) nonessential amino acids (Sigma), 0.55 mM 2-mercaptoethanol (Gibco), and antibiotics (Invitrogen). Every three to four days, colonies were detached with 0.2% collagenase IV (Invitrogen), dissociated into single cells with 0.025% trypsin (Sigma) and 0.1% chicken serum (Invitrogen) in PBS, and replated onto MEFs. For embryoid body (EB) formation, iPSCs were dissociated into a single cell suspension by 0.25% trypsin-EDTA and plated onto non-adherent culture dishes in DMEM with 15% FBS, […] MEM nonessential amino acids, 0.55 mM 2-mercaptoethanol, and antibiotics at a density of 2×10^6 cells/100 mm plate. After 4 days in floating culture, EBs were transferred onto gelatin-coated plates and maintained in the same medium for 24 h. EBs were then assigned for in vitro differentiation into tridermal lineages as previously described (Li et al., 2011). […]

Mice (C57/B6) [2] = experiment: 72-hour survival of repetitive CCl4-injured mice; format: in vivo, mouse; conditions: repetitive CCl4 at 0, 24 and 48 h; treatment once at 4 h
Experimental: (§1) Mice (C57/B6, 8 to 10 weeks) were housed in cage and allowed free access to food and water. Mouse was given carbon tetrachloride (CCl4, Sigma) in mineral oil (0.35·μl/g, single dose, i.p.) to induce liver injury. At 4 h post-injury, mice were randomized to receive vehicle (PBS), iPS cells or iHL (2×10^6 cells/in 100 μl PBS) infusions via tail veins. For the time points study, mouse received blood withdrawal (˜100 μl) from facial veins at scheduled time for liver biochemistry. When mouse was sacrificed, blood was drawn from the heart and the liver was harvested and prepared for subsequent experiments including histochemistry, cytokine assay, protein and gene expression analysis. For neutralizing antibody study, mouse was given two doses (0.5 μg/dose, i.p.) of anti-IP-10 antibodies (Abcam, ab9938, Cambridge, UK) at 4 h before and 4 h after injury. For 72 h survival study, mice received repetitive CCl4 injury at 0, 24 and 48 h. The iPS cells (2×10^6 cells/in 100 μl PBS) or recombinant IP10 (rIP10, 0.5 ng) were given once at 4 h and the mortality rate of mice was observed until 72 h post-injury. […]
To evaluate the survival effects of iPS cells and IP-10, the 72-hour survival rates were evaluated in repetitive CCl4-injured mice, to which two additional doses of CCl4 (given at 24 and 48 hours) were given after the first dose. […]

Mice (C57/B6) [3] = experiment: CCl4-induced acute liver injury model; format: in vivo, mouse; conditions: CCl4-injured mice
Experimental: as §1, with “h.” for “h. The iPS cells (2×10^6 cells/in 100 μl PBS) or recombinant IP10 (rIP10, 0.5 ng) were given once at 4 h and the mortality rate of mice was observed until 72 h post-injury.”
The paraffin sections of livers were stained by H.E. and photo-taken under microscopy at 40× magnification to evaluate the degree of injury. Necrotic area were determined by measuring five independent fields per liver using a computerized morphometry system (MicroCam, M&T OPTICS, Taiwan) and expressed as percentage of the filed area. […]

hepatocytes = experiment: viability of CCl4-injured hepatocytes (MTT assay); format: cell-based; conditions: 0.5 or 5 ng, CCl4 concentration of 1.0 to 2.5 mM, 24 h
Experimental: Mouse germline-competent iPS cells were provided by Kyoto University (Dr. Shinya Yamanaka) and RIKEN BRC, Japan (Takahashi K et al. (2006) Cell 126:663-676). IPS cells were cultured as previously described (Okita K et al. (2007) Nature 448: 313-317.9). […] For recombinant IP-10 (rIP-10, Peprotech, NC) study, hepatocytes were seeded on 24-well plates at the same density. The rIP-10 (0.5 ng or 5 ng) was given at 4 h post-injury. The viability of hepatocytes was evaluated at 24 h by methyl thiazol tetrazolium (MTT, Sigma) assay.

Row | Compound | efficiency of iPSC generation [1] | 72-hour survival rates (Mice (C57/B6) [2]) [%] | degree of liver damage (Mice (C57/B6) [3]) | viability of injured hepatocytes (hepatocytes)
1 | NC(=O)c1cccc(N)c1 [3-aminobenzamide] | reduction in the efficiency of iPSC generation | – | – | –
2 | C[C@]1(c2nc3c(C(N)=O)cccc3[nH]2)CCCN1 [ABT-888] | reduction in the efficiency of iPSC generation | – | – | –
3 | CN(C)CC(=O)Nc1ccc2[nH]c(=O)c3ccccc3c2c1 [PJ-34] | reduction in the efficiency of iPSC generation | – | – | –
4 | rIP-10: recombinant IP-10 (Peprotech) | – | 100 | significantly reduced | sufficiently increased the viability
